# Source: patent US10544147B2, “Purine inhibitors of human phosphatidylinositol 3-kinase delta” (MERCK SHARP & DOHME CORP., priority 2016, dated 2020)
# Tests used:
# [1] = target: PI3Kalpha (Homo sapiens (Human), UniProt P42336); experiment: HTRF PI3K biochemical assay, alpha isoform (selectivity versus delta); conditions: ratio PI3K-alpha IC50 value/PI3K-delta IC50 value
# [2] = target: PI3Kdelta (Homo sapiens (Human), UniProt O00329); experiment: HTRF PI3K biochemical assay, delta isoform; conditions: 0.3 nM enzyme, 100 uM ATP, 50 uM PIP2; form screened (neutral or TFA salt)
# Chain of PI3Kdelta (O00329 whole entry, canonical isoform): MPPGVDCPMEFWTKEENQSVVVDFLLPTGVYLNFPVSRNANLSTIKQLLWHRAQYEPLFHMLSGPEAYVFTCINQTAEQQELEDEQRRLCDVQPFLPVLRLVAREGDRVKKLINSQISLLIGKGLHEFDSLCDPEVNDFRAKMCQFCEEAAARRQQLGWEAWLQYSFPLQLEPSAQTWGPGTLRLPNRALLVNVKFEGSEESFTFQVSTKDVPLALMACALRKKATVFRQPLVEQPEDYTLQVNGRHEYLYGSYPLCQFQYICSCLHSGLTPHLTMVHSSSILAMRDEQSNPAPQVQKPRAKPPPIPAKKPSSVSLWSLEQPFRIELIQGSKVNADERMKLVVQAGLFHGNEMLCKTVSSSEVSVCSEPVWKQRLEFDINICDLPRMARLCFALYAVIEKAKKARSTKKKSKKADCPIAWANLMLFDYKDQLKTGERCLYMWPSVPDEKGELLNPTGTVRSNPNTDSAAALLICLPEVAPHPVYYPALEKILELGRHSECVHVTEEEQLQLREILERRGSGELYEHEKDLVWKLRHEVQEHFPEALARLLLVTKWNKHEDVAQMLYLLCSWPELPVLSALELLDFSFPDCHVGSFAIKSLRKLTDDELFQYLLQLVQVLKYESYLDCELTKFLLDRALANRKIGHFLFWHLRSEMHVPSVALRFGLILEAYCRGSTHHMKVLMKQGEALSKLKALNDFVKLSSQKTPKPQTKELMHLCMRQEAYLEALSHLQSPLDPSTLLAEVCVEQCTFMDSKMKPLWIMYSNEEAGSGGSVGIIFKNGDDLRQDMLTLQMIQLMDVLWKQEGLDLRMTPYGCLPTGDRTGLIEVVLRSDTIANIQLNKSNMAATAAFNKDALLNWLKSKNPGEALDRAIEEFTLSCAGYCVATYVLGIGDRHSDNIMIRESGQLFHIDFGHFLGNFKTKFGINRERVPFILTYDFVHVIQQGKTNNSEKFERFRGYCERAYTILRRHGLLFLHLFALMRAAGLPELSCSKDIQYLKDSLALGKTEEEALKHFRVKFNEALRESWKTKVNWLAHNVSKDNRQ
# Chain of PI3Kdelta (P27986 whole entry partner, canonical isoform): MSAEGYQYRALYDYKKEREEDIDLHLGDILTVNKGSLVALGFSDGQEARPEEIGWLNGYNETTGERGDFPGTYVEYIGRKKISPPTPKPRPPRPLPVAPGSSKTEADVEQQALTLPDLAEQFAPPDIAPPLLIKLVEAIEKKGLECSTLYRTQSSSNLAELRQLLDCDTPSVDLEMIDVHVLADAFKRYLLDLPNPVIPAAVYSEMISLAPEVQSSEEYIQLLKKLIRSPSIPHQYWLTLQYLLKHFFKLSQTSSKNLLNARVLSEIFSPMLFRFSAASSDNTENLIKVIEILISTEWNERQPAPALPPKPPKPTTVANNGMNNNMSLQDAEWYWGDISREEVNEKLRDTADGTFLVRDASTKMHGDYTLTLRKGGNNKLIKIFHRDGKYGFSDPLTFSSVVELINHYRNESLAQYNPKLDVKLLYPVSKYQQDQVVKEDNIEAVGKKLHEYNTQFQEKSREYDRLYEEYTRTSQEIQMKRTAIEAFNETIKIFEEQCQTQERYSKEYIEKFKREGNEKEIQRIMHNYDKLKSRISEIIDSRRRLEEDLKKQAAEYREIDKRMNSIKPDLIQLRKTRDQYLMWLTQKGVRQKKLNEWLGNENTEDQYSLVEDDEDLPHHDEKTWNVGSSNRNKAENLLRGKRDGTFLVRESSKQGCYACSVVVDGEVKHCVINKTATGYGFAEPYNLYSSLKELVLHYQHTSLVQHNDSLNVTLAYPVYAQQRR
# Chain of PI3Kalpha (P42336 whole entry, canonical isoform): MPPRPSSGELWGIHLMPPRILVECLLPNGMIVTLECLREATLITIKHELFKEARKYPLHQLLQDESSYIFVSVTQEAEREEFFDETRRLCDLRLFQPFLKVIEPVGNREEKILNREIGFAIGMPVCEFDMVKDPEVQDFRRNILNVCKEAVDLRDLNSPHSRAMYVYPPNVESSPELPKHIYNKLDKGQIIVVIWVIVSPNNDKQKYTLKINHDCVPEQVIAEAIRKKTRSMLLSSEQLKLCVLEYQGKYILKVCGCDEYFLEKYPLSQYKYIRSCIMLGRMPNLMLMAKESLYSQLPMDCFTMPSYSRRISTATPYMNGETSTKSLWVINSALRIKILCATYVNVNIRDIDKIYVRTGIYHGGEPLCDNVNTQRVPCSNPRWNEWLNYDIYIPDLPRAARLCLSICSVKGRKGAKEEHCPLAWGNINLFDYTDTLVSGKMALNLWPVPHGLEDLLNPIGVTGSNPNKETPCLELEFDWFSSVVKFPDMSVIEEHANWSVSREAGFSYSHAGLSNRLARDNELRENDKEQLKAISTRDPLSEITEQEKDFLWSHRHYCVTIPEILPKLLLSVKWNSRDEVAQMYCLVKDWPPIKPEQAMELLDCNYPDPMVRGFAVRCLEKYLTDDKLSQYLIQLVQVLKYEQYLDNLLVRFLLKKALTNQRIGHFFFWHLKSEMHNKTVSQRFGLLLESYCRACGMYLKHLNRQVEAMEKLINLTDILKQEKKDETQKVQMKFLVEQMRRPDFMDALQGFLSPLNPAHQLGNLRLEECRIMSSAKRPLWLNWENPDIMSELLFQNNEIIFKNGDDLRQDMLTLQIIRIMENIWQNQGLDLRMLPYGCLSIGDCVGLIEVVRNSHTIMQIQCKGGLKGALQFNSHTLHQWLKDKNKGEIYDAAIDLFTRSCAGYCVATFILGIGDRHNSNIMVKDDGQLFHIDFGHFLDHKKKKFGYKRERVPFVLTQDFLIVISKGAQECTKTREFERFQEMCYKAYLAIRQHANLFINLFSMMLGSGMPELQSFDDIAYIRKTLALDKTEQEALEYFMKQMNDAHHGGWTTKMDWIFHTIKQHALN
# Chain of PI3Kalpha (P27986 whole entry partner, canonical isoform): as the sequence (P27986 whole entry partner, canonical isoform) above
Compound,Relative Selectivity versus PI3Kalpha [1],IC50 [2]
"CCn1c(-c2cnc(C)nc2)nc2c(-c3ccc4c(c3)C(C)(NC[C@@H]3CCCO3)C(=O)N4)ncnc21 (mixture of isomers) [Compound 2-21, 5-[9-ethyl-8-(2-methylpyrimidin-5-yl)-9H-purin-6-yl]-3(R and S)-methyl-3-{[(2S)-tetrahydrofuran-2-ylmethyl]amino}-1,3-dihydro-2H-indol-2-one]",>10,22 nM
"CCn1c(-c2cnc(C)nc2)nc2c(-c3ccc4c(c3)C(C)(Cc3ccccc3)N(C)C4=O)ncnc21 (single isomer, unassigned) [Compound 4-12, (R or S)-3-benzyl-5-[9-ethyl-8-(2-methylpyrimidin-5-yl)-9H-purin-6-yl]-2,3-dimethyl-2,3-dihydro-1H-isoindol-1-one]",>10,14 nM
"CCn1c(-c2cnc(C)nc2)nc2c(-c3cnc4c(c3)C(C)(CC(C)C)C(=O)N4)ncnc21 (single isomer, unassigned) [Compound 1-12, 5-(9-ethyl-8-(2-methylpyrimidin-5-yl)-9H-purin-6-yl)-3-isobutyl-3-methyl-1,3-dihydro-2H-pyrrolo[2,3-b]pyridin-2-one]",>10,9 nM
"CCn1c(-c2cnc(C)nc2)nc2c(-c3ccc4c(c3)C(C)(Cc3ccccc3)C(=O)N4C)ncnc21 (single isomer, unassigned) [Compound 1-20, 3-Benzyl-5-(9-ethyl-8-(2-methylpyrimidin-5-yl)-9H-purin-6-yl)-1,3-dimethylindolin-2-one]",3,477 nM
"CCn1c(-c2cnc(C)nc2)nc2c(-c3ccc4c(c3)C(C)(NCC3(F)COC3)C(=O)N4)ncnc21 (single isomer, unassigned) [Compound 2-71, (R or S)-5-(9-ethyl-8-(2-methylpyrimidin-5-yl)-9H-purin-6-yl)-3-(((3-fluorooxetan-3-yl)methyl)amino)-3-methylindolin-2-one]",>10,219 nM
"CCn1c(C(F)F)nc2c(-c3ccc4c(c3)C(C)(Cc3ccccc3)C(=O)N4)ncnc21 (single isomer, unassigned) [Compound 1-23, (R or S)-benzyl-5-(8-(difluoromethyl)-9-ethyl-9H-purin-6-yl)-3-methylindolin-2-one]",>10,27 nM
"Cc1ncc(-c2nc3c(-c4ccc5c(c4)C(C)(NCC(C)(F)F)C(=O)N5)ncnc3n2C)cn1 (single isomer, unassigned) [Compound 2-70, (R or S)-3-((2,2-difluoropropyl)amino)-3-methyl-5-(9-methyl-8-(2-methylpyrimidin-5-yl)-9H-purin-6-yl)indolin-2-one]",>10,4 nM
"CCn1c(-c2cnc(C)nc2)nc2c(-c3ccc4c(c3)C(C)(NC[C@H]3CCCO3)C(=O)N4)ncnc21 (mixture of isomers) [Compound 2-22, 5-[9-ethyl-8-(2-methylpyrimidin-5-yl)-9H-purin-6-yl]-3(R and S)-methyl-3-{[(2R)-tetrahydrofuran-2-ylmethyl]amino}-1,3-dihydro-2H-indol-2-one]",>10,26 nM
"CCn1c(-c2cnc(C)nc2)nc2c(-c3ccc4c(c3)C3(CCCO3)C(=O)N4)ncnc21 (single isomer, unassigned) [Compound 3-30, (R or S)-5′-(9-ethyl-8-(2-methylpyrimidin-5-yl)-9H-purin-6-yl)-4,5-dihydro-3H-spiro[furan-2,3′-indolin]-2′-one]",5,156 nM
"CCn1c(-c2cnc(C)nc2)nc2c(-c3ccc4c(c3)C(C)(C3CCOCC3)C(=O)N4)ncnc21 (single isomer, unassigned) [Compound 1-35, 5-(9-Ethyl-8-(2-methylpyrimidin-5-yl)-9H-purin-6-yl)-3-methyl-3-(tetrahydro-2H-pyran-4-yl)indolin-2-one]",>10,5 nM
"Cc1ncc(-c2nc3c(-c4ccc5c(c4)C4(CCCN4C(C)C)C(=O)N5)ncnc3n2C)cn1 (single isomer, unassigned) [Compound 3-13, (R or S)-1′-isopropyl-5-(9-methyl-8-(2-methylpyrimidin-5-yl)-9H-purin-6-yl)spiro[indoline-3,2′-pyrrolidin]-2-one]",>10,45 nM
"CCn1c(-c2cnc(C)nc2)nc2c(-c3ccc4c(c3)C3(CCCN3)C(=O)N4)ncnc21 (single isomer, unassigned) [Compound 3-32, (R or S)-5-(9-ethyl-8-(2-methylpyrimidin-5-yl)-9H-purin-6-yl)spiro[indoline-3,2′-pyrrolidin]-2-one]",>10,169 nM
"CCn1ncc(-c2nc3c(-c4ccc5c(c4)C(C)(CC4CC4)C(=O)N5)ncnc3n2CC)c1C (single isomer, unassigned) [Compound 1-25, 3-(Cyclopropylmethyl)-5-(9-ethyl-8-(1-ethyl-5-methyl-1H-pyrazol-4-yl)-9H-purin-6-yl)-3-methylindolin-2-one]",>10,4 nM
"CCn1c(-c2cnc(C)nc2)nc2c(-c3ccc4c(c3)C3(CCCN3S(C)(=O)=O)C(=O)N4C)ncnc21 (single isomer, unassigned) [Compound 3-24, (R or S)-5-(9-ethyl-8-(2-methylpyrimidin-5-yl)-9H-purin-6-yl)-1-methyl-1′-(methylsulfonyl)spiro[indoline-3,2′-pyrrolidin]-2-one]",>10,32 nM
"Cc1ncc(-c2nc3c(-c4cnc5c(c4)C(C)(CC(C)C)C(=O)N5)ncnc3n2C)cn1 (single isomer, unassigned) [Compound 1-27, (R or S)-3-isobutyl-3-methyl-5-(9-methyl-8-(2-methylpyrimidin-5-yl)-9H-purin-6-yl)-1,3-dihydro-2H-pyrrolo[2,3-b]pyridin-2-one]",>10,5 nM
"CCn1c(-c2cnc(C)nc2)nc2c(-c3ccc4oc(=O)n(C(C)c5ccccc5)c4c3)ncnc21 (single isomer, unassigned) [Compound 5-1, (R or S)-5-[9-ethyl-8-(2-methylpyrimidin-5-yl)-9H-purin-6-yl]-3-(1-phenylethyl)-1,3-benzoxazol-2(3H)-one]",>10,14 nM
"CCn1c(-c2cnc(C)nc2)nc2c(-c3ccc4c(c3)C3(CCCN3S(=O)(=O)C(F)(F)F)C(=O)N4)ncnc21 (single isomer, unassigned) [Compound 3-21, (R or S)-5-(9-ethyl-8-(2-methylpyrimidin-5-yl)-9H-purin-6-yl)-1′-((trifluoromethyl)sulfonyl)spiro[indoline-3,2′-pyrrolidin]-2-one]",2,69 nM
"CCn1c(-c2cnc(C)nc2)nc2c(-c3ccc4c(c3)C3(CCN(C(=O)C5CC5)C3)C(=O)N4)ncnc21 (single isomer, unassigned) [Compound 3-6, (R or S)-1′-(cyclopropanecarbonyl)-5-(9-ethyl-8-(2-methylpyrimidin-5-yl)-9H-purin-6-yl)spiro[indoline-3,3′-pyrrolidin]-2-one]",>10,26 nM
